# Results taken from patent US7943770B2, “Fused quinoline derivative and use thereof” (Takeda Pharmaceutical Company Limited, priority 2004, dated 2011).
# Target: T1, hNK2 receptor (Homo sapiens, UniProt P21452)
# T1 construct: host or cells: CHO cells
# T1 sequence (P21452 1-398): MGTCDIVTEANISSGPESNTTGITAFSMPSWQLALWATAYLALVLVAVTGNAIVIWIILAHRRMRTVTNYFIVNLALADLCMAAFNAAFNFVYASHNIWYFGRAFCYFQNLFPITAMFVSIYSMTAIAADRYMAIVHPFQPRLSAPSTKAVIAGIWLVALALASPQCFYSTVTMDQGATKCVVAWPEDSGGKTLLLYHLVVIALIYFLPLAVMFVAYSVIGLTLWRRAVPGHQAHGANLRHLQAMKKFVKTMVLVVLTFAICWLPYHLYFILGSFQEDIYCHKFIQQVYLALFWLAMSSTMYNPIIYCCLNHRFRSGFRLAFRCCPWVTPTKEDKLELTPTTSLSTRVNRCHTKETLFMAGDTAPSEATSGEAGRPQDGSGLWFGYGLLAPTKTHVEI
# Assay: Radio-ligand ([125I]-NKA) receptor binding inhibitory activity using membrane fraction of hNK2 receptor-expressing CHO cell
# Conditions: membrane fraction of hNK2 receptor-expressing CHO cells, 25° C., 30 min
# Procedure, shortened: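 Membranes from hNK2-expressing CHO cells (20 μg/mL suspension) incubated with test compound and [125I]-NKA ([…] solution as added) in Tris-HCl pH 7.4 with BSA, protease inhibitors, 3 mM MnCl2, 25 °C, 30 min. Bound radioactivity by GF/C filtration and scintillation; inhibition expressed relative to specific binding (total minus unlabeled-NKA non-specific).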
row,Structure (SMILES),IC50 [nM]
1,"COc1ccc(NC(=O)N[C@@H]2CCCC[C@@H]2C(=O)N2CC[C@@H]3[C@H](c4ccccc4)Nc4ccccc4[C@@H]32)cc1 [Example 137, N-(4-Methoxyphenyl)-N′-((1R,2S)-2-{[(3aR,4R,9bR)-4-phenyl-2,3,3a,4,5,9b-hexahydro-1H-pyrrolo[3,2-c]quinolin-1-yl]carbonyl}cyclohexyl)urea]",< 1
2,"Cc1cc(C(=O)N[C@@H]2CCCC[C@@H]2C(=O)N2CC[C@@H]3[C@H](c4ncc[nH]4)Nc4ccccc4[C@@H]32)ccc1C#N [Example 309, 4-Cyano-N-((1R,2S)-2-{[(3aR,4R,9bR)-4-(1H-imidazol-2-yl)-2,3,3a,4,5,9b-hexahydro-1H-pyrrolo[3,2-c]quinolin-1-yl]carbonyl}cyclohexyl)-3-methylbenzamide]",< 1
3,"COC(=O)CCCCC(=O)N[C@@H]1CCCC[C@@H]1C(=O)N1CC[C@@H]2[C@H](c3ccccc3)Nc3ccccc3[C@@H]21 [Example 116, Methyl 6-oxo-6-[((1R,2S)-2-{[(3aR,4R,9bR)-4-phenyl-2,3,3a,4,5,9b-hexahydro-1H-pyrrolo[3,2-c]quinolin-1-yl]carbonyl}cyclohexyl)amino]hexanoate]",< 10
4,"O=C(NC1(CC(=O)N2CC[C@@H]3[C@H](c4ccccc4)Nc4ccccc4[C@@H]32)CCCCC1)c1ccccc1 (relative stereo) [Example 312, N-(1-{2-oxo-2-[(3aR*,4R*,9bR*)-4-phenyl-2,3,3a,4,5,9b-hexahydro-1H-pyrrolo[3,2-c]quinolin-1-yl]ethyl}cyclohexyl)benzamide]",< 10
5,"CNc1ccc(C(=O)N[C@@H]2CCCC[C@@H]2C(=O)N2CC[C@@H]3[C@H](COC)Nc4ccccc4[C@@H]32)cc1 [Example 239, N-((1R,2S)-2-{[(3aR,4R,9bR)-4-(Methoxymethyl)-2,3,3a,4,5,9b-hexahydro-1H-pyrrolo[3,2-c]quinolin-1-yl]carbonyl}cyclohexyl)-4-(methylamino)benzamide]",< 1
6,"COC[C@@H]1Nc2ccccc2[C@H]2[C@@H]1CCN2C(=O)[C@H]1CCCC[C@H]1NC(=O)c1ccc(S(C)(=O)=O)cc1 [Example 278, N-((1R,2S)-2-{[(3aR,4R,9bR)-4-(Methoxymethyl)-2,3,3a,4,5,9b-hexahydro-1H-pyrrolo[3,2-c]quinolin-1-yl]carbonyl}cyclohexyl)-4-(methylsulfonyl)benzamide]",< 10
7,"COC[C@@H]1Nc2ccccc2[C@H]2[C@@H]1CCN2C(=O)[C@H]1CCCC[C@H]1NC(=O)c1ccc(OC(F)F)cc1 [Example 234, 4-(Difluoromethoxy)-N-((1R,2S)-2-{[(3aR,4R,9bR)-4-(methoxymethyl)-2,3,3a,4,5,9b-hexahydro-1H-pyrrolo[3,2-c]quinolin-1-yl]carbonyl}cyclohexyl)benzamide]",< 1
8,"COC[C@@H]1Nc2ccccc2[C@H]2[C@@H]1CCN2C(=O)[C@H]1CCCC[C@H]1NC(=O)c1ccc(CNC(C)=O)cc1 [Example 263, 4-[(Acetylamino)methyl]-N-((1R,2S)-2-{[(3aR,4R,9bR)-4-(methoxymethyl)-2,3,3a,4,5,9b-hexahydro-1H-pyrrolo[3,2-c]quinolin-1-yl]carbonyl}cyclohexyl)benzamide]",< 10
9,"O=C(Nc1ccc2c(c1)OCO2)N[C@@H]1CCCC[C@@H]1C(=O)N1CC[C@@H]2[C@H](c3ccccc3)Nc3ccccc3[C@@H]21 [Example 148, N-1,3-Benzodioxol-5-yl-N′-((1R,2S)-2-{[(3aR,4R,9bR)-4-phenyl-2,3,3a,4,5,9b-hexahydro-1H-pyrrolo[3,2-c]quinolin-1-yl]carbonyl}cyclohexyl)urea]",< 1
10,"O=C(CCCCCBr)N[C@@H]1CCCC[C@@H]1C(=O)N1CC[C@@H]2[C@H](c3ccccc3)Nc3ccccc3[C@@H]21 [Example 109, 6-Bromo-N-((1R,2S)-2-{[(3aR,4R,9bR)-4-phenyl-2,3,3a,4,5,9b-hexahydro-1H-pyrrolo[3,2-c]quinolin-1-yl]carbonyl}cyclohexyl)hexanamide]",< 10
11,"NC(=O)c1ccc(C(=O)N[C@@H]2CCCC[C@@H]2C(=O)N2CC[C@@H]3[C@H](c4ccsc4)Nc4ccccc4[C@@H]32)cc1 [Example 190, N-((1R,2S)-2-{[(3aR,4R,9bR)-4-(3-Thienyl)-2,3,3a,4,5,9b-hexahydro-1H-pyrrolo[3,2-c]quinolin-1-yl]carbonyl}cyclohexyl)terephthalamide]",< 1
12,"COC[C@@H]1Nc2ccccc2[C@H]2[C@@H]1CCN2C(=O)[C@H]1CCCC[C@H]1NC(=O)Nc1ccc2c(c1)OCO2 [Example 208, N-1,3-Benzodioxol-5-yl-N′-((1R,2S)-2-{[(3aR,4R,9bR)-4-(methoxymethyl)-2,3,3a,4,5,9b-hexahydro-1H-pyrrolo[3,2-c]quinolin-1-yl]carbonyl}cyclohexyl)urea]",< 1
13,"COc1ccccc1C(=O)N[C@@H]1CCCC[C@@H]1C(=O)N1CC[C@@H]2[C@H](c3ccccc3)Nc3ccccc3[C@@H]21 [Example 94, 2-Methoxy-N-((1R,2S)-2-{[(3aR,4R,9bR)-4-phenyl-2,3,3a,4,5,9b-hexahydro-1H-pyrrolo[3,2-c]quinolin-1-yl]carbonyl}cyclohexyl)benzamide]",< 10
14,"COC[C@@H]1Nc2ccccc2[C@H]2[C@@H]1CCN2C(=O)[C@H]1CCCC[C@H]1NC(=O)c1cc2ccccc2[nH]1 [Example 229, N-((1R,2S)-2-{[(3aR,4R,9bR)-4-(Methoxymethyl)-2,3,3a,4,5,9b-hexahydro-1H-pyrrolo[3,2-c]quinolin-1-yl]carbonyl}cyclohexyl)-4H-indole-2-carboxamide]",< 1
15,"N#Cc1ccc(NC(=O)N[C@@H]2CCCC[C@@H]2C(=O)N2CC[C@@H]3[C@H](c4ccccc4)Nc4ccccc4[C@@H]32)cc1 [Example 147, N-(4-Cyanophenyl)-N′-((1R,2S)-2-{[(3aR,4R,9bR)-4-phenyl-2,3,3a,4,5,9b-hexahydro-1H-pyrrolo[3,2-c]quinolin-1-yl]carbonyl}cyclohexyl)urea]",< 10
16,"O=C(N[C@@H]1CCCC[C@@H]1C(=O)N1CC[C@@H]2[C@H](c3ccccc3)Nc3ccccc3[C@@H]21)N1CCC(c2ccccc2)CC1 [Example 172, 4-Phenyl-N-((1R,2S)-2-{[(3aR,4R,9bR)-4-phenyl-2,3,3a,4,5,9b-hexahydro-1H-pyrrolo[3,2-c]quinolin-1-yl]carbonyl}cyclohexyl)piperidine-1-carboxamide]",< 10
17,"O=C(N[C@@H]1CCCC[C@@H]1C(=O)N1CC[C@@H]2[C@H](c3ncc[nH]3)Nc3ccccc3[C@@H]21)c1ccc2[nH]nnc2c1 [Example 310, N-((1R,2S)-2-{[(3aR,4R,9bR)-4-(1H-Imidazol-2-yl)-2,3,3a,4,5,9b-hexahydro-1H-pyrrolo[3,2-c]quinolin-1-yl]carbonyl}cyclohexyl)-1H-1,2,3-benzotriazole-5-carboxamide]",< 1
18,"COC[C@@H]1Nc2ccccc2[C@H]2[C@@H]1CCN2C(=O)[C@H]1CCCC[C@H]1NC(=O)Nc1ccc(OC)c(C#N)c1 [Example 285, N-(3-Cyano-4-methoxyphenyl)-N′-((1R,2S)-2-{[(3aR,4R,9bR)-4-(methoxymethyl)-2,3,3a,4,5,9b-hexahydro-1H-pyrrolo[3,2-c]quinolin-1-yl]carbonyl}cyclohexyl)urea]",< 1
19,"N#Cc1ccc(C(=O)N[C@@H]2CCCC[C@@H]2C(=O)N2CC[C@@H]3[C@H](c4ccc[nH]4)Nc4ccccc4[C@@H]32)cc1 [Example 322, 4-Cyano-N-((1R,2S)-2-{[(3aR,4R,9bR)-4-(1H-pyrrol-2-yl)-2,3,3a,4,5,9b-hexahydro-1H-pyrrolo[3,2-c]quinolin-1-yl]carbonyl}cyclohexyl)benzamide]",< 1
20,"O=C(N[C@@H]1CCCC[C@@H]1C(=O)N1CC[C@@H]2[C@H](c3ccccc3)Nc3ccccc3[C@@H]21)c1ccccc1 (relative stereo) [Example 1, N-((1R,2S)-2-{[(3aR*,4R*,9bR*)-4-Phenyl-2,3,3a,4,5,9b-hexahydro-1H-pyrrolo[3,2-c]quinolin-1-yl]carbonyl}cyclohexyl)benzamide]",< 10
21,"COC[C@@H]1Nc2ccccc2[C@H]2[C@@H]1CCN2C(=O)[C@H]1CCCC[C@H]1NC(=O)c1cccc(C#N)c1 [Example 233, 3-Cyano-N-((1R,2S)-2-{[(3aR,4R,9bR)-4-(methoxymethyl)-2,3,3a,4,5,9b-hexahydro-1H-pyrrolo[3,2-c]quinolin-1-yl]carbonyl}cyclohexyl)benzamide]",< 10
22,"O=C(/C=C/c1ccc(F)cc1)N[C@@H]1CCCC[C@@H]1C(=O)N1CC[C@@H]2[C@H](c3ncc[nH]3)Nc3ccccc3[C@@H]21 [Example 297, (2E)-3-(4-Fluorophenyl)-N-((1R,2S)-2-{[(3aR,4R,9bR)-4-(1H-imidazol-2-yl)-2,3,3a,4,5,9b-hexahydro-1H-pyrrolo[3,2-c]quinolin-1-yl]carbonyl}cyclohexyl)acrylamide]",< 1
23,"CCC[C@@H]1Nc2ccccc2[C@H]2[C@@H]1CCN2C(=O)[C@H]1CCCC[C@H]1NC(=O)c1ccccc1 (relative stereo) [Example 27, N-((1R,2S)-2-{[(3aR*,4S*,9bR*)-4-Propyl-2,3,3a,4,5,9b-hexahydro-1H-pyrrolo[3,2-c]quinolin-1-yl]carbonyl}cyclohexyl)benzamide]",< 10
24,"CCCCNC(=O)N[C@@H]1CCCC[C@@H]1C(=O)N1CC[C@@H]2[C@H](c3ccsc3)Nc3ccccc3[C@@H]21 [Example 188, N-Butyl-N′-((1R,2S)-2-{[(3aR,4R,9bR)-4-(3-thienyl)-2,3,3a,4,5,9b-hexahydro-1H-pyrrolo[3,2-c]quinolin-1-yl]carbonyl}cyclohexyl)urea]",< 1
